Legend:
H9C2 cells = test: MTT proliferation assay in Tob1 expressing (control) H9C2 cells; assay type: cell-based, rat; details: for H9C2 % Proliferation (normalized to control): 4 microMolar, MTT assay after 144 hours, increase above control values; for EC50 in H9C2 cells lower than EC50 in Tob1 KO H9C2 cells (selectivity for Tob1): H9C2 control vs Tob1 KO H9C2 cells, MTT; for EC50: Rattus norvegicus, H9C2 control cells, proliferation by MTT, 144 hours, 1,28 nM to 20 µM
Procedure: (§1) 3-(4,5-dimethylthiazol-2-yl)-2,5-diphenyltetrazolium bromide, MTT (Sigma, M5655-500MG) assay was used as a surrogate to evaluate cell number and cell proliferation in H9C2 and MCF-7 cells. MTT is a colorimetric assay that measures cell metabolic activity in viable cells, resulting from the activity of mitochondrial dehydrogenases which cleave the tetrazolium ring of the yellow tetrazolium salt MTT, yielding formazan crystals. The protocol was designed to align Tob1 peak decrease in mRNA expression levels (48-96 hours post-transfection) with the period of exponential growth of the cells (24-72 hours post-replating).
MCF-7 cells and H9C2 cells were seeded at 100,000 cells/well in 24-well in DMEM + 10% FBS plates to reach 80-90% at time of transfection. MCF-7 and H9C2 cells were transfected 24 hours post-plating with Silencer® Select siRNAs to knock down Tob1. 48 hours post-transfection, cells were lifted and plated at 10000 (MCF-7) and 8000 cells/well (H9C2) in 96-well plates and grown for 144 hours. At day 6 (144 hours), 0,5 mg/ml MTT was added and incubated for 3 hours, producing formazan crystals that were solubilized with SDS 20%+ HCl 0.02N. 24 hours later, absorbance was measured at 590 nm with the spectrophotometer FLUOstar Omega plate reader (BMG LabTech).
(§2) Both Tob1 expressing and Tob1 knockout H9C2 cells were seeded at 8000 cells/well in 96-well plates. 48 hours later, cells were treated with 1.28 nM; 6.4 nM; 32 nM, 160nM, 800 nM, 4 µM and 20 µM ZXR-807, ZXR-810; ZXR-081 and ZXR-090 and cell proliferation was measured 144 hours post-treatment using the MTT assay as described above.
Once lead compounds were selected, their efficacy, potency and selectivity at promoting proliferative responses, were evaluated in vitro in rat cardiomyoblasts (H9C2 cells) using MTT assay. H9C2 cells were treated with vehicle 0,3% DMSO and increasing concentrations of Tob1 inhibitors: ZXR-807, ZXR-810, ZXR-081 and ZXR-090, (1,28 nM to 20 µM), followed by the assessment of proliferation, using the MTT assay, after cells were left to grow for 144 hours (6 Days).

Tob1 KO H9C2 cells = test: MTT proliferation assay in Tob1 knockout H9C2 cells; assay type: cell-based; details: Rattus norvegicus; Tob1 depleted (KO) H9C2 cells; proliferation by MTT, 144 hours
Procedure: 100.000 H9C2 cells were plated in a 24 well plate day before transfection with lipofectamine CRISPRMAX™ (Thermofisher, CMAX00001), to obtain a 70% of confluence. The CRISPRMAX™ assay was performed following the manufacturer's instructions. Briefly Cas9 nuclease/gRNA RNP complexes were prepared by combining the following components , 3,85 µ! of 2 µM Alt-R S.p. Cas9 Nuclease v3 (1081059, IDT)1; 2,25 µ! of 2 µM sgRNAs (Tob1 sgRNA1: […] (SEQ ID NO: 3) and Tob1 sgRNA2: […] (SEQ ID NO: 4), negative control: GCACUACCAGAGCUAA (SEQ ID NO: 5), Synthego), 2,5 µ! Cas9 plus reagent in 16,65 µl Opti-MEM™(Gibco™; Life Technologies, Grand Island, NY, USA) in tube 1 and 1,5 µl lipofectamine CRISPRMAX™ in 25 µ! in Opti-MEM™ in tube 2. The Cas9/sgRNA ribonucleoprotein (RNP) complex was obtained by incubating the mix of tub1 and 2 for 10 minutes at room temperature. 50 µL of the RNP complex was added to cells in 450 µL of fresh high glucose DMEM (ATCC, 30-2002), supplemented with 10 % FBS and without antibiotics and cells were incubated with the RNP complex for 48 h at 37 °C.
as §1
MCF-7 cells and H9C2 cells were seeded at 100,000 cells/well in 24-well in DMEM + 10% FBS plates to reach 80-90% at time of transfection. MCF-7 and H9C2 cells were transfected 24 hours post-plating with Silencer® Select siRNAs to knock down Tob1. 48 hours post-transfection, cells were lifted and plated at 10000 (MCF-7) and 8000 cells/well (H9C2) in 96-well plates and grown for 144 hours. […] 24 hours later, absorbance was measured at 590 nm with the spectrophotometer FLUOstar Omega plate reader (BMG LabTech).
as §2
Tob1 inhibitors selectivity was assessed by comparing dose-responses of ZXR-807, ZXR-810, ZXR-081 and ZXR-090 in H9C2 control cells and H9C2 Tob1 KO cells where Tob1 was depleted by CRISPR/Cas9 technology. […]

Cdk1 = test: Real time PCR of proliferation marker gene Cdk1 in H9C2 cells; assay type: cell-based, rat; details: 100 nM in H9C2 cells; for Cdk1 mRNA expression increase: normalized to vehicle-treated cells
Procedure: (§3) In order to evaluate 1) efficiency of Tob1 knockdown in MCF-7 and H9C2 cells and 2) expression levels of proliferation markers (Pcna, Cdk1 and Ccnb1) in H9C2 cells treated with the compounds of the invention, H9C2 cells were harvested by trypsinization and centrifuged at 300 x g for 5 min. Total mRNA was isolated using the Maxwell 16 LEV simplyRNA Cells Kit or Tissue Kit (Promega, Madison, WI) following the manufacturer's instructions. Nanodrop ND-1000 Spectrophotometer (Thermo Fisher Scientific, Waltham, MA) was used to quantity the amount of RNA extracted. cDNA synthesis was performed from 300 ng of total RNA with the SuperScript IV First-Strand Synthesis System (Thermo Fisher Scientific, Waltham, MA).
(§4) Real-time PCR was conducted using LightCycler 480 SYBR Green I Master on a LightCycler 480 thermal cycler (Roche, Basel, Switzerland). The expression levels of the indicated genes were calculated by the conventional 2^-DDCt method, with normalization to housekeeping gene glyceraldehyde-3-phosphate dehydrogenase (GAPDH).

Ccnb1 = test: Real time PCR of proliferation marker gene Ccnb1 in H9C2 cells; assay type: cell-based, rat; details: 100 nM in H9C2 cells
Procedure: as §3, §4

hiPSC cardiomyocytes [1] = test: Cell migration (wound healing) assay in hiPSC-CMs; assay type: cell-based, Human; details: 8 nM, 144 hours
Procedure: (§5) hiPSC-CMs cells were seeded at 25,000 cells per well in 96 wells plates. 168 hours after seeding, cells were scraped with a 200 µL tip and treated with 8, 40 and 200nM ZXR-807, ZXR-810, ZXR-081 and ZXR-090. Plates were imaged with an inverted microscope (Leica, DMI6000B) right after generating the wound (0 h) and 144 hours post-scraping.
All images were analyzed using the Fiji software (Schindelin et al., 2012) and the amount of cellular migration was determined by calculating the wound area at 0h and 28 hours or 144 hours and normalized to control vehicle-treated cells (0,3% DMSO).

hiPSC cardiomyocytes [2] = test: CellTiter-Glo proliferation assay in hiPSC-CMs; assay type: cell-based, Human; details: 8nM
Procedure: Human Induced pluripotent stem-cell derived (iPS-CMs) cardiomyocytes (iCell® Cardiomyocytes, Cat. No. 11713) were purchased from FUJIFILM Cellular Dynamics. hiPSC Cardiomyocytes were seeded into 96 well plates coated with 0,1% gelatin (STEMCELL tech, 07903) with iCell Cardiomyocytes plating medium (Fujifilm, M1001). After 48 hours, the medium was changed to iCell Cardiomyocytes maintenance medium (Fujifilm, M1003) and cells were cultured for 2 weeks with media replacement every 48-72 hours. Cells were maintained in a humidified incubator (Thermo Scientific,HERACELL 150i) in a 95% air 5% CO2 environment at 37 °C
CellTitler-Glo® (Promega, G7570) was used to measure the activity of the compounds of the invention in triggering proliferation in hiPSC-CMs. The CellTiter-Glo® Luminescent Cell Viability Assay, similar to the MTT assay but with higher sensitivity, determines the number of metabolically active and viable cells, and is based on the quantification of ATP levels in the cells.
hiPSC-CMs were seeded at 7000 cells/well in 96-well plates and treated with the compounds of the invention at 8; 40 and 200nM in a 0.3% DMSO containing iCell Cardiomyocyte medium and a control treatment or vehicle with 0.3% DMSO in iCell cardiomyocyte medium. hiPSC-CMs proliferation was measured after 144h (6 days) , and 336 (14 days) of treatment. At each time point, 100 µL of CellTiter Glo (ratio 1:1 CellTiter Glo: cell culture medium ) was added to each well containing 100 µL iCell Cardiomyocyte medium, following the manufacturer's instructions. Luminescence was read in Varioskan (Thermo Fisher Scientific), 30 minutes after adding the reagent.

Ki67 = test: Nuclear Ki67 immunostaining in hiPSC-CMs after migration assay; assay type: cell-based, Human; details: 8 nM, 144 hrs, hiPSC cardiomyocytes
Procedure: as §5
Following the migration assay, the medium was aspirated from the 96-well plates, and cells were washed twice with phosphate buffered saline solution (PBS) 1x (Fisher bioreagents, BP399-4). Cells were fixed with 4% paraformaldehyde (Sigma, 158127) for 10 minutes at room temperature and washed 3 times with PBS 1x. Cells were permeabilized with Triton™ X-100, 0.03% (Merck, T8787) and blocked with 0.5% Goat serum (ThermoFisher, 16210064) in PBS 1x, during 1 hour at room temperature. The primary antibodies Ki67 rabbit antibody 1/100 (Santacruz, sc-23900), and cardiac Troponin (cTnT mouse antibody 1/100 (ThermoFisher, MA5-12960) were diluted in the following buffer: Triton™ X-100 0.03% and 1% Bovine serum albumin (BSA) 10% (nzytech, MB04602) and PBS 1x. hiPSC-CMs were incubated with the primary antibodies overnight at 4°C, washed three times with PBS 1x and incubated with the secondary antibodies goat anti-mouse or anti -rabbit coupled to Alexa fluorescent dyes (company). DAPI 1/1000 (Merck, D9542-5MG) was incubated for 20 min at room temperature to visualize nuclei. Cells were washed out 3x with PBS and kept in PBS at 4°C.
Preparations were examined on a fluorescent inverted microscope Leica, DMI6000B using 20x dry objectives from Leica. Images were analyzed with the open source image processing package Fiji to quantify Nuclear Ki67 fluorescent intensity and cellular cardiac troponin T (cTnT) normalized to the number of nuclei in the field of view

Row | SMILES | H9C2 % Proliferation (normalized to control) (H9C2 cells) | EC50 in H9C2 cells lower than EC50 in Tob1 KO H9C2 cells (selectivity for Tob1) (H9C2 cells) | EC50 (H9C2 cells) [nM] | EC50 (Tob1 KO H9C2 cells) [nM] | Cdk1 mRNA expression increase (Cdk1) | Ccnb1 expression (in words) (Ccnb1) | cell migration of hiPSC-CMs (in words) (hiPSC cardiomyocytes [1]) | transcriptional activation of Cdk1 (in words) (Cdk1) | increase of proliferation rate of hiPSC cardiomyocytes (hiPSC cardiomyocytes [2]; 144 hours (6 days)) | increase of proliferation rate of hiPSC cardiomyocytes (hiPSC cardiomyocytes [2]; 336 hours (14 days)) [%] | nuclear Ki67 expression away from the scratch (Ki67) | time course of effect on proliferation increase (in words) (hiPSC cardiomyocytes [2]; peaking at 144 hours and disappearing by 336 hours) | nuclear Ki67 signal intensity close to the scratch (Ki67)
1 | CC(=O)N[C@H]1C[C@@H](C(=O)N2CCOCC2)[C@H](c2ccc(Cl)cc2)C1 (relative stereo) [ZXR-090, rel-N-[(1R,3R,4R)-3-(4-chlorophenyl)-4-(morpholine-4-carbonyl)cyclopentyl]acetamide] | 26,6% | 200-300 | 0.128 | 62.8 | about 3 fold | more moderately increased | activate cell migration | – | – | – | – | – | –
2 | CC(C)N(C)C(=O)[C@@H]1C[C@H](N)C[C@H]1c1ccc(Cl)cc1 (relative stereo) [ZXR-810, rel(1R,2R,4R)-4-amino-2-(4-chlorophenyl)-N-isopropyl-N-methyl-cyclopentanecarboxamide] | 26.5% | 200-300 | 0.62 | 62.8 | – | more moderately increased | activate cell migration | promote the transcriptional activation | 20-28% | 40 | increased | – | –
3 | N[C@H]1C[C@@H](C(=O)N2CCSCC2)[C@H](c2ccc(Cl)cc2)C1 (relative stereo) [ZXR-807, rel-[(1R,2R,4R)-4-amino-2-(4-chlorophenyl)cyclopentyl]-thiomorpholino-methanone] | 27,4% | < 60,000 | – | 82.8 | – | more moderately increased | activate cell migration | promote the transcriptional activation | 20-28% | 40 | increased | – | –
4 | Cl.N[C@H]1C[C@@H](C(=O)N2CCOCC2)[C@H](c2ccc(Cl)cc2)C1 (relative stereo) [ZXR-081, rel-[(1R,2R,4R)-4-amino-2-(4-chlorophenyl)cyclopentyl]-morpholino-methanone hydrochloride] | 36,6% | < 60,000 | – | 177 | about 3 fold | – | activate cell migration | – | 20-28% | – | increased | transitory effect | significantly increased

Reference: patent publication EP4506341A1, “TISSUE REGENERATION APPROACHES” (ZeCardio Therapeutics SL, priority 2023, dated 2025)
